Results as given in patent publication US20090291066A1, “COMPOSITION AND METHOD OF TREATING FACIAL SKIN DEFECT” (priority 2008, published 2009).

Tests used:
[1] = tested on: serum proteins; details: in vivo; cited from earlier work
[2] = tested on: facial preadipocytes; experiment: Differentiation of human primary facial preadipocytes (lipid droplet formation, oil red O); type: cell-based; details: cell source not given
Description: Human primary preadipocytes from facial and abdominal skin samples, obtained with informed consent, were isolated and cultured following a published procedure (Crandall et al, Endocrinology 140:154-8, 1999). Briefly, samples from abdominal or facial operations were subjected to enzymatic digestion in Krebs-Ringer-bicarbonate buffer (pH 7.4) containing 6 mM glucose and 2 mg/mL collagenase. After this initial enzymatic digestion, the content of the flask was passed through a sterile, 230-micron stainless steel tissue sieve (Cellector, Bellco Glass Inc., Vineland, N.J.) into a 50-mL sterile, plastic test tube. […]
All differentiation agents (IBMX, dexamethasone, insulin, and rosiglitazone) were added to the culture media 24 hours after the cells were seeded. […] Subsequently, the cultures were incubated with oil red O (a dye that binds to neutral lipids); the dye was then extracted and quantified by spectrophotometry. […]
Human primary preadipocytes were isolated and cultured as described in Example 2. […] Subsequently, the cultures were incubated with oil red O (a dye that binds to neutral lipids); the dye was then extracted and quantified by spectrophotometry. […]

Compound | bound to serum proteins [1] | adipogenesis of preadipocytes ([2]; added in the media at 5-50 μM in addition to IBMX, insulin and dexamethasone) | effect on the differentiation process ([2]; alone, without IBMX and dexamethasone)
CN(CCOc1ccc(CC2SC(=O)NC2=O)cc1)c1ccccn1 (stereo not drawn) [Rosiglitazone, rosiglitazone] | 99.8% | – | –
CCCCC/C=C\C/C=C\CCCCCCCC(=O)O [Linoleic acid, linoleic acid] | – | can enhance adipogenesis of preadipocytes | could not affect the differentiation process
